One assay concerns guinea pig atria. Put plainly: isolated guinea pig atria and papillary muscle procedure: right atrial force. It counts as cell-based. Particulars: Cavia porcellus, read-out: % Change from Control RAF. From the text: (§1) Detailed descriptions of these test procedures appear in U.S. Patent No. 4,072,746, issued February 7, […].
(§2) Cardiotonic activity in said isolated cat or guinea pig atria and papillary muscle procedure, is indicated by a significant increase, that is, greater than 25% (cat) or 30% (g.pig) in papillary muscle force and a significant increase, that is, greater than 25% (cat) or 30% (g.pig) in right atrial force, with a lower percentage increase (about one-half or less than the percentage increase in right atrial force or papillary muscle force) in right atrial rate. Because of the lower control active tensions of guinea pig tissues, the percent change from control values of both rate and force responses is elevated slightly, i.e., 5%. Thus, whereas cardiotonic activity is ascertained with a papillary muscle force or right atrial force increase of 26% and greater in the cat test, corresponding activity in the guinea pig test is designated with a papillary muscle force (PMr) or right atrial force (RAF) increase of 31% or greater. Representative examples of the compounds of Formulas I and II were tested by said guinea pig atria and papillary muscle procedure with the following results: […]

In the next assay the test system is papillary muscle. Put plainly: isolated guinea pig atria and papillary muscle procedure: papillary muscle force. Particulars: Cavia porcellus, papillary muscle force, read-out: % Change from Control PMF. It counts as cell-based.
Source text: as §1, §2

The subject of another assay is anesthetized dog. Put plainly: anesthetized dog procedure: cardiac contractile force. It counts as in vivo. The settings on record: administered intravenously. On the procedure: as §1
When tested by said anesthetized dog procedure, the said cardiotonically active compounds of formulas I and II at doses of from about 0.030 to 3.0 mg/kg administered intravenously are found to cause significant increases, that is, 25% or greater, in cardiac contractile force or cardiac contractility with lower changes in heart rate and blood pressure. Representative examples of the invention were tested by this procedure and found to cause increases in contractile force as follows: […]

For the compound `O=c1ccc2c(Br)nccc2[nH]1` [Example 4, 5-bromo-1,6-naphthyridin-2(1H)-one], in the assay with guinea pig atria, the activation at 3 µg/mL is 57%, the activation at 10 µg/mL was found to be 49% and the activation at 30 µg/mL turned out to be 134%. Moreover, in the assay on papillary muscle, the activation at 3 µg/mL is 73%, the activation at 10 µg/mL came to 85% and the activation at 30 µg/mL stood at 110%. Also, the “% Increase In Contractile Force” value in the assay with anesthetized dog (dose 0.100 mg/kg) is 135%.
Turning to `O=c1ccc2c(-n3ccnc3)nccc2[nH]1` [Example 6, 5-(lH-imidazol-1-yl)-1,6-naphthyridin-2(lH)-one], in the assay with guinea pig atria, the activation at 3 µg/mL was 70%, the activation at 10 µg/mL is 68% and the activation at 30 µg/mL was 142%. Also, in the assay with papillary muscle, the activation at 3 µg/mL turned out to be 55%, the activation at 10 µg/mL stood at 90% and the activation at 30 µg/mL was found to be 96%.
For `Cc1cn(-c2nccc3[nH]c(=O)ccc23)cn1` [Example 7, 5-(4-Methyl-1H-imidazol-1-yl)-1,6-naphthyridin-2(1H)-one], the activation at 0.3 µg/mL with guinea pig atria (dose 0.3 µg/ml) is 28%; in the assay on papillary muscle (dose 0.3 µg/ml) it was 53%. The activation at 1 µg/mL was 49% with guinea pig atria and 66% in the assay on papillary muscle. The activation at 3 µg/mL in the assay on guinea pig atria was 88%; with papillary muscle it was 87%. The “% Increase In Contractile Force” value is 34% in the assay with anesthetized dog (dose 0.030 mg/kg), 96% in the assay on anesthetized dog (dose 0.100 mg/kg) and 124% in the assay on anesthetized dog (dose 0.300 mg/kg).
On to `Cc1nccn1-c1nccc2[nH]c(=O)ccc12` [Example 8, 5-(2-Methyl-1H-imidazol-1-yl)-1,6-naphthyridin-2(lH)-one], for which, in the assay on guinea pig atria, the activation at 10 µg/mL is 39%, the activation at 30 µg/mL turned out to be 117% and the activation at 100 µg/mL was 221%. Moreover, in the assay on papillary muscle, the activation at 10 µg/mL came to 34%, the activation at 30 µg/mL was 69% and the activation at 100 µg/mL is 100%.
With `Cc1ncc([N+](=O)[O-])n1-c1nccc2[nH]c(=O)ccc12` [Example 9, 5-(2-methyl-5-nitro-1H-imidazol-1-yl)-1,6-naphthyridin-2(1H)-one], in the assay with guinea pig atria, the activation at 10 µg/mL came out at 15%, the activation at 30 µg/mL was determined as 16% and the activation at 100 µg/mL came out at 116%. Further, in the assay with papillary muscle, the activation at 10 µg/mL was 24%, the activation at 30 µg/mL was 43% and the activation at 100 µg/mL came to 103%.
With `O=c1ccc2c(-n3cccn3)nccc2[nH]1` [Example 10, 5-(1H-pyrazol-1-yl)-1,6-naphthyridin-2(1H)-one], in the assay with guinea pig atria, the activation at 10 µg/mL was 38%, the activation at 30 µg/mL was determined as 102% and the activation at 100 µg/mL was 168%. In addition, in the assay with papillary muscle, the activation at 10 µg/mL was 43%, the activation at 30 µg/mL amounted to 121% and the activation at 100 µg/mL came to 203%.
Regarding `O=c1ccc2c(-n3cncn3)nccc2[nH]1` [Example 11, 5-(lH-1,2,4-triazol-1-yl)-1,6-naphthyridin-2(1H)-one], in the assay on guinea pig atria, the activation at 3 µg/mL amounted to 28%, the activation at 10 µg/mL was determined as 31% and the activation at 30 µg/mL is 140%. In addition, in the assay with papillary muscle, the activation at 3 µg/mL turned out to be 51%, the activation at 10 µg/mL was 76% and the activation at 30 µg/mL worked out at 108%.
Consider `Cc1ncn(-c2nccc3[nH]c(=O)ccc23)c1C` [Example 12, 5-(4,5-dimethyl-1H-imidazol-1-yl)-1,6-naphthyridin-2(1H)-one], for which the activation at 3 µg/mL amounted to 7% in the assay on guinea pig atria and 13% with papillary muscle. The results for the activation at 10 µg/mL in the assay with guinea pig atria and in the assay on papillary muscle were 14% and 49%, respectively. The activation at 30 µg/mL turned out to be 50% in the assay with guinea pig atria and 92% in the assay on papillary muscle. Besides, the figures for the “% Increase In Contractile Force” value in the assay on anesthetized dog (dose 1.00 mg/kg) and with anesthetized dog (dose 3.00 mg/kg) were 54% and 136%, respectively.
Regarding `O=c1ccc2c(-n3cnc(-c4ccccc4)c3)nccc2[nH]1` [Example 13, 5-(4-phenyl-lH-imidazol-1-yl)-1,6-naphthyridin-2(1H)-one], in the assay with guinea pig atria, the activation at 10 µg/mL amounted to 33%, the activation at 30 µg/mL turned out to be 24% and the activation at 100 µg/mL was 1%. Further, in the assay with papillary muscle, the activation at 10 µg/mL came out at 25%, the activation at 30 µg/mL was found to be 34% and the activation at 100 µg/mL came out at 36%. Moreover, the “% Increase In Contractile Force” value in the assay with anesthetized dog (dose 1.00 mg/kg) was determined as 40%. Further, in the assay with anesthetized dog (dose 3.00 mg/kg), the “% Increase In Contractile Force” value is listed as 87%.
`Cc1ccn(-c2nccc3[nH]c(=O)ccc23)n1` [Example 40, 5-(3-Methyl-1H-pyrazol-1-yl)-1,6-naphthyridin-2(lH)-one]: in the assay with guinea pig atria, the activation at 3 µg/mL was 26%, the activation at 10 µg/mL came out at 89% and the activation at 30 µg/mL turned out to be 84%. Also, in the assay with papillary muscle, the activation at 3 µg/mL is 24%, the activation at 10 µg/mL is 64% and the activation at 30 µg/mL came to 97%.
Consider `Cc1ncn(-c2nccc3[nH]c(=O)ccc23)n1` [Example 41, 5-(3-methyl-lH-1,2,4-triazole-1-yl)-1,6-naphthyridin-2(1H)-one], for which, in the assay on guinea pig atria, the activation at 1 µg/mL is 29%, the activation at 3 µg/mL stood at 37% and the activation at 10 µg/mL stood at 67%. Besides, in the assay with papillary muscle, the activation at 1 µg/mL amounted to 36%, the activation at 3 µg/mL amounted to 56% and the activation at 10 µg/mL was 124%.
Turning to `O=c1ccc2c(-n3cnc(CO)c3)nccc2[nH]1` [Example 42, 5-[4-(Hydroxymethyl)-1H-imidazol-1-yl]-1,6-naphthyridin-2(lH)-one], in the assay on guinea pig atria, the activation at 1 µg/mL was -2%, the activation at 3 µg/mL worked out at 8% and the activation at 10 µg/mL came out at 37%. In the assay with papillary muscle, the activation at 1 µg/mL was found to be 9%, the activation at 3 µg/mL came out at 48% and the activation at 10 µg/mL turned out to be 112%.
For the compound `O=c1ccc2c(-n3cnc(Br)c3)nccc2[nH]1` [Example 43, 5-(4-Bromo-1H-imidazol-1-yl)-1,6-naphthyridin-2(lH)-one], in the assay with guinea pig atria, the activation at 1 µg/mL stood at 35%, the activation at 3 µg/mL came to 43% and the activation at 10 µg/mL is 56%. Moreover, in the assay on papillary muscle, the activation at 1 µg/mL amounted to 47%, the activation at 3 µg/mL was determined as 71% and the activation at 10 µg/mL worked out at 128%.
For the compound `O=c1ccc2c(-n3cnc(C(F)(F)F)c3)nccc2[nH]1` [Example 44, 5-[(4-(Trifluoromethyl)-lH-imidazol-1-yl)]-1,6-naphthyridin-2(lH)-one], in the assay with guinea pig atria, the activation at 10 µg/mL turned out to be 35%, the activation at 30 µg/mL came out at 36% and the activation at 100 µg/mL is 101%. In the assay on papillary muscle, the activation at 10 µg/mL amounted to 30%, the activation at 30 µg/mL came to 31% and the activation at 100 µg/mL was 69%.
`Cc1cc2[nH]c(=O)ccc2c(Br)n1` [Example 46, 5-Bromo-7-methyl-1,6-naphthyridin-2(1H)-one]: in the assay on guinea pig atria, the activation at 1 µg/mL was found to be 41%, the activation at 3 µg/mL amounted to 92% and the activation at 10 µg/mL came to 59%. For the same compound, in the assay with papillary muscle, the activation at 1 µg/mL worked out at 44%, the activation at 3 µg/mL came to 67% and the activation at 10 µg/mL was determined as 114%.
`Cc1cn(-c2nc(C)cc3[nH]c(=O)ccc23)cn1` [Example 47, 7-Methyl-5-(4-methyl-1H-imidazol-1-yl)-1,6-naphthyridin-2(lH)-one]: the activation at 1 µg/mL with guinea pig atria was 37%; in the assay on papillary muscle, 46%. Further, the results for the activation at 3 µg/mL in the assay on guinea pig atria and with papillary muscle were 46% and 48%, respectively. Besides, the activation at 10 µg/mL in the assay on guinea pig atria came to 158%; in the assay on papillary muscle, 164%. The “% Increase In Contractile Force” value is reported as 71% in the assay with anesthetized dog (dose 0.100 mg/kg), 125% in the assay with anesthetized dog (dose 0.300 mg/kg) and 183% with anesthetized dog (dose 1.00 mg/kg).
As to `O=c1ccc2c(-n3cnc([N+](=O)[O-])c3)nccc2[nH]1` [Example 48, 5-(4-nitro-1H-imidazol-1-yl)-1,6-naphthyridin-2(1H)-one], in the assay on guinea pig atria, the activation at 10 µg/mL is 18%, the activation at 30 µg/mL amounted to 42% and the activation at 100 µg/mL was 170%. For the same compound, in the assay with papillary muscle, the activation at 10 µg/mL was determined as 37%, the activation at 30 µg/mL was determined as 71% and the activation at 100 µg/mL was 107%.

The values are drawn from patent EP0189853A2, “1,6-Naphthyridin-2(1H)-ones having cardiotonic activity and preparation” (STERLING DRUG INC., priority 1985, dated 1986).
